Three compounds from patent US10123985B2, “Therapeutic strategies for treating mitochondrial disorders” (Whitehead Institute for Biomedical Research, priority 2015, dated 2018) can be followed below.

Entries after “also recorded” stand apart in the source; their conditions may differ.

In one test the test system is 143B CytB cells. Kind of test: Amino acid and TCA cycle metabolite GC-MS analysis, 143B CytB cells. The following applies: AKB withdrawal. Type of test: cell-based. The procedure: 143B and 143B CytB cells were seeded at 400,000 cells/well in 6 well dishes overnight. The following day, cells were washed 2 times in PBS and media was changed to proliferation assay media with or without the indicated treatments. After 8 hours, polar metabolites were extracted using 80% methanol in water with 1 μg norvaline per sample. Soluble content was then dried under nitrogen gas. Polar samples were derivatized and measured as detailed in (Lewis). Relative metabolite abundances were determined by integrating ion peak area (Metran) and normalized to norvaline internal extraction standard.

In test [1] the test system is lactate dehydrogenase (LDH). Kind of test: Lactate dehydrogenase assay (disappearance of NADH absorbance). The following applies: 1 mM α-ketobutyrate, 180 μM NADH, absorbance at 340 nm. Type of test: biochemical. The procedure:
Immediately prior to the start of the assay 100 μL of a reaction buffer containing 50 mM HEPES-KOH pH 7.5, 20 mM KCl, 2 mM MgCl2, 1 mM DTT, 180 μM NADH, 1 mM α-ketobutyrate (where applicable) was combined with LDH (where applicable) in 96-well plates. Lactate dehydrogenase activity was assayed by monitoring disappearance of NADH absorbance at 340 nm over time.

The test system of test [2] is Jurkat cells. Kind of test: NAD+ and NADH measurements in Jurkat cells. Type of test: cell-based, human. The following applies: wild type Jurkat cells, phenformin (10 μM), aspartate (10 mM). The method, then:
Measurement of NAD^+/NADH was done by modification of manufacturer instructions for NAD^+/NADH Glo Assay (Promega). Jurkat cells were incubated in RPMI under the conditions listed for 8 hours before cell extracts were taken. To extract NAD^+/NADH, cells were centrifuged for 1 minute at 300×g, and washed 3 times by quickly resuspending in 15 mL PBS and centrifuging for 1 minute at 300×g. Pelleted samples were extracted in 100 μL ice cold lysis buffer (1% Dodecyltrimethylammonium bromide (DTAB) in 0.2 N NaOH diluted 1:1 with PBS) and frozen at −80° C. To measure NADH, 20 μL of extracts were heated to 75° C. for 30 min in the basic lysis buffer to degrade NAD^+. To measure NAD^+, samples were diluted 1:1 with 0.4 N HCl and incubated at 60° C. for 15 min where acidic conditions will degrade NADH. Following incubations, samples were quenched by adding 20 μL of 0.25 M Tris, 0.2 N HCl (NADH) or 20 μL of 0.5 M Tris base (NAD^+). Manufacturer instructions were then followed to measure NAD^+/NADH.

Test [3] has as its system Jurkat cells. Kind of test: Metabolite profiling (LC/MS) of Jurkat cells. Type of test: cell-based, human. The following applies: pyruvate 1 mM. The method, then: LC/MS analyses were conducted on a QExactive benchtop orbitrap mass spectrometer equipped with an Ion Max source and a HESI II probe, which was coupled to a Dionex UltiMate 3000 UPLC system (Thermo Fisher Scientific, San Jose, Calif.). External mass calibration was performed using the standard calibration mixture every 7 days.
Polar metabolites were extracted using 1 ml of ice-cold 80% methanol with 10 ng/ml valine-d8 as an internal standard. After a 10 min vortex and centrifugation for 10 min at 4° C. at 10,000 g, samples were dried under nitrogen gas. Dried samples were stored at −80° C. and then resuspended in 100 μL water; 1 μl of each sample was injected onto a ZIC-pHILIC 2.1×150 mm (5 μm particle size) column (EMD Millipore). Buffer A was 20 mM ammonium carbonate, 0.1% ammonium hydroxide; buffer B was acetonitrile. The chromatographic gradient was run at a flow rate of 0.150 ml/min as follows: 0-20 min.: linear gradient from 80% to 20% B; 20-20.5 min.: linear gradient from 20% to 80% B; 20.5-28 min.: hold at 80% B. The mass spectrometer was operated in fullscan, polarity switching mode with the spray voltage set to 3.0 kV, the heated capillary held at 275° C., and the HESI probe held at 350° C. The sheath gas flow was set to 40 units, the auxiliary gas flow was set to 15 units, and the sweep gas flow was set to 1 unit. The MS data acquisition was performed in a range of 70-1000 m/z, with the resolution set at 70,000, the AGC target at 106, and the maximum injection time at 80 msec. Relative quantitation of polar metabolites was performed with XCalibur QuanBrowser 2.2 (Thermo Fisher Scientific) using a 5 ppm mass tolerance and referencing an in-house library of chemical standards.

Test [4] concerns ETC-defective cybrid cells. The test can be described thus: [U-13C]-L-glutamine isotope tracing of aspartate in cybrid cells. Type of test: cell-based. The following applies: [U-13C]-L-glutamine 7 hours, pyruvate (1 mM). The procedure:
FIG. 19. […] Cell line models of ETC dysfunction were cultured in RPMI (supplemented with uridine) with pyruvate (1 mM) or aspartate (10 mM) for 6 days. Relative cell number was determined by normalizing to the pyruvate-supplemented condition. Representative bright-field micrographs of MERRF, CYTB, and 143B ρ0 cells after 6 days in indicated conditions (right) (mean±SD, n=3, **p<0.05). […] Mass isotopomer analysis of aspartate in wild type, phenformin-treated wild type, and ETC-defective cybrid cells cultured for 7 hours with [U-^13C]-L-glutamine (middle) in the presence or absence of pyruvate (1 mM). The fraction of labeled aspartate from [U-^13C]-L-glutamine is indicated (mean±SD, for n=3, **p<0.05) (bottom). OAA, oxaloacetate. […] Immunoblot analysis of wild type, MERRF, and CYTB cybrid cells expressing sgControl and sgGOT1 (top). Raptor was used as a loading control. […] Relative cell number was determined by normalizing to sgControl expressing cell line (mean±SD, for n=3, **p<0.05). […]
Polar metabolites were extracted using 1 ml of ice-cold 80% methanol with 10 ng/ml valine-d8 as an internal standard. […] Relative quantitation of polar metabolites was performed with XCalibur QuanBrowser 2.2 (Thermo Fisher Scientific) using a 5 ppm mass tolerance and referencing an in-house library of chemical standards.

With `CCC(=O)C(=O)O` [AKB, α-ketobutyrate], in the test with 143B CytB cells, the “Aspartate intracellular pool size” value is “also decreased”, the “Glutamate intracellular pool size” value is recorded as “only modestly decreased” and the “TCA cycle metabolite pool sizes” value is reported as “drastically lowered”. For the same compound, the “Regeneration of NAD+ from NADH by LDH” value in test [1] is listed as “capable of regenerating NAD^+ from NADH”.

Turning to `N[C@@H](CC(=O)O)C(=O)O` [aspartate], in the test with Jurkat cells [2], the “NAD+/NADH ratio in cells with ETC inhibition” value is “did not restore the NAD/NADH ratio in cells with ETC inhibition; also recorded: does not increase the NAD^+/NADH ratio in cells with ETC inhibition”.

For `CC(=O)C(=O)O` [pyruvate], in the test with Jurkat cells [3] (MDH1-null Jurkat cells treated with ETC inhibitors), the “Aspartate synthesis with pyruvate” value is “did not stimulate aspartate synthesis; also recorded: depends on MDH1”. For the same compound, the “Aspartate levels with pyruvate” value in the test on Jurkat cells [3] (phenformin-treated (10 μM, 24 hours) GOT1-null Jurkat cells) is “no effect on aspartate”; in the test with Jurkat cells [3] (phenformin-treated (10 μM, 24 hours) wild type Jurkat cells) it was “increases cellular aspartate levels in a GOT1-dependent manner; also recorded: restored aspartate levels to normal in phenformin-treated wild type cells”. Besides, the “Aspartate synthesis in ETC-defective cybrid cells” value in test [4] is reported as “stimulated aspartate synthesis in the ETC-defective cells; also recorded: stimulates aspartate biosynthesis in cybrid cells with ETC dysfunction”.
